Earlier results in US6696413B2 (Hexal AG, priority 1995, dated 2004).

Details: 16 hours after application of 300 μg of a 5 percent vitamin E solution in ethanol per cm^2

vitamin E found in the horny layer: 10.7% | vitamin E found in underlying skin layers: about 40.9%
Substance: vitamin E
